In brackets after ≈: the same amount, converted by molar mass.
Assays:
Format in all cases: cell-based
E. coli MP-4 = experiment: MIC determination by CLSI broth dilution, E. coli MP-4; details: Escherichia coli, MP4, CLSI broth dilution; strain MP-4
S. aureus MP-12 = experiment: microbe, parasite or virus in culture; details: Staphylococcus aureus, MP12, read-out: MIC S. aureus MP-12
P. aeruginosa MP-3 = experiment: MIC determination by CLSI broth dilution, P. aeruginosa MP-3; details: Pseudomonas aeruginosa, MP3, strain MP-3
K. pneumoniae MP-546 = experiment: MIC determination by CLSI broth dilution, K. pneumoniae MP-546; details: Klebsiella pneumoniae, MP546, CLSI broth dilution; strain MP-546
K. pneumoniae MP-648 = experiment: MIC determination by CLSI broth dilution, K. pneumoniae MP-648; details: strain MP-648; for MIC: Klebsiella pneumoniae, MP648, CLSI broth dilution
A. baumannii MP-15 = experiment: MIC determination by CLSI broth dilution, A. baumannii MP-15; details: Acinetobacter baumannii, MP15, strain MP-15, read-out: MIC A. baumanii MP-15

Row | Compound | MIC (E. coli MP-4) | MIC (S. aureus MP-12) | MIC (P. aeruginosa MP-3) | MIC (K. pneumoniae MP-546) | MIC (K. pneumoniae MP-648) | MIC (A. baumannii MP-15) | MIC K. pneumoniae MP-648 (K. pneumoniae MP-648; CLSI broth dilution)
1 | CO[C@]1(C)C[C@@H](C)CN(CC(C)C)[C@@H](CCCN2CCc3ccccc3C2)COC(=O)C(C)(C)C(=O)[C@H](C)[C@H]1O[C@@H]1O[C@H](C)C[C@H](N(C)C)[C@H]1O [Compound 141, (3S,6R,8R,9R,10R)-3-(3-(3,4-dihydroisoquinolin-2 (1H)-yl)propyl)-9-(((2S,3R,4S,6R)-4-(dimethylamino)-3-hydroxy-6-methyltetrahydro-2H-pyran-2-yl)oxy)-4-isobutyl-8-methoxy-6,8,10,12,12-pentamethyl-1-oxa-4-azacyclotridecane-11,13-dione] | < 4 µg/mL | < 4 µg/mL | > 32 µg/mL | < 4 µg/mL | 4 to 32 µg/mL (≈ 5.59 to 44.7 µM) | > 32 µg/mL | –
2 | CCCN1C[C@H](C)C[C@@](C)(OC)[C@H](O[C@@H]2O[C@H](C)C[C@H](N(C)C)[C@H]2O)[C@@H](C)C(=O)C(C)(C)C(=O)OC[C@H]1CCCN1CCCC1 [Compound 144, (3R,6R,8R,9R,10R)-9-(((2S,3R,4S,6R)-4-(dimethylamino)-3-hydroxy-6-methyltetrahydro-2H-pyran-2-yl)oxy)-8-methoxy-6,8,10,12,12-pentamethyl-4-propyl-3-(3-(pyrrolidin-1-yl)propyl)-1-oxa-4-azacyclotridecane-11,13-dione] | < 4 µg/mL | < 4 µg/mL | < 4 µg/mL | < 4 µg/mL | < 4 µg/mL | > 32 µg/mL | –
3 | CCCN1C[C@H](C)C[C@@](C)(OC)[C@H](O[C@@H]2O[C@H](C)C[C@H](N(C)C)[C@H]2O)[C@@H](C)C(=O)C(C)(C)C(=O)OC[C@H]1CCCN1Cc2ccccc2C1 [Compound 145, (3R,6R,8R,9R,10R)-9-(((2S,3R,4S,6R)-4-(dimethylamino)-3-hydroxy-6-methyltetrahydro-2H-pyran-2-yl)oxy)-3-(3-(isoindolin-2-yl)propyl)-8-methoxy-6,8,10,12,12-pentamethyl-4-propyl-1-oxa-4-azacyclotridecane-11,13-dione] | < 4 µg/mL | < 4 µg/mL | < 4 µg/mL | < 4 µg/mL | < 4 µg/mL | > 32 µg/mL | –
4 | CCN1C[C@H](C)C[C@@](C)(OC)[C@H](O[C@@H]2O[C@H](C)C[C@H](N(C)C)[C@H]2O)[C@@H](C)C(=O)C(C)(C)C(=O)OC[C@H]1[C@H](O)CCN1CCCC1 [Compound 146] | < 4 µg/mL | 4 to 32 µg/mL (≈ 6.23 to 49.9 µM) | > 32 µg/mL | < 4 µg/mL | < 4 µg/mL | > 32 µg/mL | –
5 | CCN1C[C@H](C)C[C@@](C)(OC)[C@H](O[C@@H]2O[C@H](C)C[C@H](N(C)C)[C@H]2O)[C@@H](C)C(=O)C(C)(C)C(=O)OC[C@H]1[C@@H](CCN1CCCC1)OC [Compound 147] | < 4 µg/mL | 4 to 32 µg/mL (≈ 6.1 to 48.8 µM) | > 32 µg/mL | 4 to 32 µg/mL (≈ 6.1 to 48.8 µM) | 4 to 32 µg/mL (≈ 6.1 to 48.8 µM) | > 32 µg/mL | –
6 | CO[C@]1(C)C[C@@H](C)CN(C)[C@H](CC2=CCN(CC3CC3)CC2)COC(=O)C(C)(C)C(=O)[C@H](C)[C@H]1O[C@@H]1O[C@H](C)C[C@H](N(C)C)[C@H]1O [Compound 148] | < 4 µg/mL | 4 to 32 µg/mL (≈ 6.15 to 49.2 µM) | > 32 µg/mL | 4 to 32 µg/mL (≈ 6.15 to 49.2 µM) | 4 to 32 µg/mL (≈ 6.15 to 49.2 µM) | > 32 µg/mL | –
7 | CCCN1CCC(=C[C@@H]2COC(=O)C(C)(C)C(=O)[C@H](C)[C@@H](O[C@@H]3O[C@H](C)C[C@H](N(C)C)[C@H]3O)[C@](C)(OC)C[C@@H](C)CN2C)CC1 [Compound 149] | < 4 µg/mL | < 4 µg/mL | > 32 µg/mL | < 4 µg/mL | < 4 µg/mL | > 32 µg/mL | –
8 | CO[C@]1(C)C[C@@H](C)CN(C)[C@H](C=C2CCN(CC3CC3)CC2)COC(=O)C(C)(C)C(=O)[C@H](C)[C@H]1O[C@@H]1O[C@H](C)C[C@H](N(C)C)[C@H]1O [Compound 150] | < 4 µg/mL | 4 to 32 µg/mL (≈ 6.15 to 49.2 µM) | > 32 µg/mL | < 4 µg/mL | 4 to 32 µg/mL (≈ 6.15 to 49.2 µM) | > 32 µg/mL | –
9 | CO[C@]1(C)C[C@@H](C)CN(C)[C@@H](CCCN2CCC2)COC(=O)C(C)(C)C(=O)[C@H](C)[C@H]1O[C@@H]1O[C@H](C)C[C@H](N(C)C)[C@H]1O [Compound 160, (3S,6R,8R,9R,10R)-3-(3-(azetidin-1-yl)propyl)-9-(((2S,3R,4S,6R)-4-(dimethylamino)-3-hydroxy-6-methyltetrahydro-2H-pyran-2-yl)oxy)-8-methoxy-4,6,8,10,12,12-hexamethyl-1-oxa-4-azacyclotridecane-11,13-dione] | < 4 µg/mL | 4 to 32 µg/mL (≈ 6.69 to 53.5 µM) | > 32 µg/mL | < 4 µg/mL | 4 to 32 µg/mL (≈ 6.69 to 53.5 µM) | > 32 µg/mL | –
10 | CO[C@]1(C)C[C@@H](C)CN(C)[C@H](CCCN2CCCC2)COC(=O)C(C)(C)C(=O)[C@H](C)[C@H]1O[C@@H]1O[C@H](C)C[C@H](N(C)C)[C@H]1O [Compound 161, (3R,6R,8R,9R,10R)-9-(((2S,3R,4S,6R)-4-(dimethylamino)-3-hydroxy-6-methyltetrahydro-2H-pyran-2-yl)oxy)-8-methoxy-4,6,8,10,12,12-hexamethyl-3-(3-(pyrrolidin-1-yl)propyl)-1-oxa-4-azacyclotridecane-11,13-dione] | < 4 µg/mL | < 4 µg/mL | 4 to 32 µg/mL (≈ 6.54 to 52.3 µM) | < 4 µg/mL | < 4 µg/mL | > 32 µg/mL | –
11 | CCN(C)CC[C@@H](O)[C@@H]1COC(=O)C(C)(C)C(=O)[C@H](C)[C@@H](O[C@@H]2O[C@H](C)C[C@H](N(C)C)[C@H]2O)[C@](C)(OC)C[C@@H](C)CN1CC [Compound 168] | < 4 µg/mL | 4 to 32 µg/mL (≈ 6.35 to 50.8 µM) | > 32 µg/mL | 4 to 32 µg/mL (≈ 6.35 to 50.8 µM) | < 4 µg/mL | > 32 µg/mL | –
12 | CCCCCCCN1CCC(C[C@@H]2COC(=O)[C@@](C)(Cc3ccccc3)C(=O)[C@H](C)[C@@H](O[C@@H]3O[C@H](C)C[C@H](N(C)C)[C@H]3O)[C@](C)(OC)C[C@@H](C)CN2C)CC1 [Compound 171] | < 4 µg/mL | 4 to 32 µg/mL (≈ 5.18 to 41.4 µM) | > 32 µg/mL | 4 to 32 µg/mL (≈ 5.18 to 41.4 µM) | 4 to 32 µg/mL (≈ 5.18 to 41.4 µM) | > 32 µg/mL | –
13 | C=C(C)C[C@]1(C)C(=O)OC[C@@H](CC2CCN(CCCCCCC)CC2)N(C)C[C@H](C)C[C@@](C)(OC)[C@H](O[C@@H]2O[C@H](C)C[C@H](N(C)C)[C@H]2O)[C@@H](C)C1=O [Compound 172] | 4 to 32 µg/mL (≈ 5.43 to 43.5 µM) | 4 to 32 µg/mL (≈ 5.43 to 43.5 µM) | > 32 µg/mL | 4 to 32 µg/mL (≈ 5.43 to 43.5 µM) | – | > 32 µg/mL | ++ (values of greater than 4 mg/L and less than or equal to 32 mg/L)
14 | CCCCCCCN1CCC(C[C@@H]2COC(=O)[C@@](C)(Cl)C(=O)[C@H](C)[C@@H](O[C@@H]3O[C@H](C)C[C@H](N(C)C)[C@H]3O)[C@](C)(OC)C[C@@H](C)CN2C)CC1 [Compound 173] | < 4 µg/mL | > 32 µg/mL | > 32 µg/mL | < 4 µg/mL | 4 to 32 µg/mL (≈ 5.58 to 44.7 µM) | > 32 µg/mL | –
15 | CCCCCCCN1CCC(C[C@@H]2COC(=O)[C@@](C)(CCC)C(=O)[C@H](C)[C@@H](O[C@@H]3O[C@H](C)C[C@H](N(C)C)[C@H]3O)[C@](C)(OC)C[C@@H](C)CN2C)CC1 [Compound 174] | < 4 µg/mL | 4 to 32 µg/mL (≈ 5.52 to 44.2 µM) | > 32 µg/mL | 4 to 32 µg/mL (≈ 5.52 to 44.2 µM) | 4 to 32 µg/mL (≈ 5.52 to 44.2 µM) | > 32 µg/mL | –
16 | CCCCCCCN1CCC(C[C@@H]2COC(=O)[C@@](C)(COC)C(=O)[C@H](C)[C@@H](O[C@@H]3O[C@H](C)C[C@H](N(C)C)[C@H]3O)[C@](C)(OC)C[C@@H](C)CN2C)CC1 [Compound 176] | < 4 µg/mL | > 32 µg/mL | > 32 µg/mL | < 4 µg/mL | 4 to 32 µg/mL (≈ 5.51 to 44.1 µM) | > 32 µg/mL | –
